Reference: patent US5518988A, “Method of counteracting an ethylene response in plants” (North Carolina State University, priority 1994, dated 1996)

Assays:
carnations [1] = assay: Protection of in vivo cut carnations against exogenous ethylene (pre-treatment with compound); design: species or system carnation (Dianthus caryophyllus)
Method: The treatment of carnations with ethylene hastens the process of senescence, producing a petal in-rolling phenomena (Halevy and Mayak, 1981). Carnations at stage II, with low ethylene production and no visible signs of senescence (Woodson, 1987) were treated with 1-methylcyclopropeneat different concentration for 6 hours before adding […] of ethylene for 1 hour.
1-Methylcyclopropene was added for various times before the application of exogenous ethylene. […] Treatment with about 250 to 300 nl/l of 1-methylcyclopropene for five minutes was enough to protect the flowers. Treated for 24 hours, with 0.5 nl/l protected against 1 ml/l of ethylene.
Flowers were treated with 5 nl/l of product during 6 hours, then, stored for 10 days at room temperature. One ml/l of ethylene was then added over 18 hours. Ethylene had no effect on the treated carnations 10 days after the 1-methylcyclopropene treatment (data not shown). The binding of 1-methylcyclopropene on carnations seems to be irreversible.
Cut carnations at stage I and stage III were treated with 1-methylcyclopropene. For young carnations, the concentration of 1-methylcyclopropene giving a protective effect was about 1.25 and 2.5 nl/l. For these, the protection against ethylene was total. For old carnations, rates between 2.5 and 5 nl/l of 1-methylcyclopropene were sufficient to give a response, but total protection was not achieved. Total protection of older carnations was only achieved with 10 nl/l of 1-methylcyclopropene (data not shown).

carnations [2] = assay: Stopping the senescent process (petal in-rolling) of carnations due to exogenous and endogenous ethylene; format: in vivo, carnation (Dianthus caryophyllus)
Method: Flowers in a pre-senescent stage were treated with 5 nl/l of 1-methylcyclopropene and the senescent process was observed.
The carnations need to have an exogenous ethylene exposure at least for 6 hours to have a visible sign of senescence. Treatment with 3 nl/l of 1-methylcyclopropene is enough to stop that process. […] 1-methylcyclopropene seems to reduce and prevent the autocatalytic production of ethylene.
The ability of 1-methylcyclopropene to stop the senescence process was observed by adding ethylene over 6 hours. […] Thereafter 1-methylcyclopropene was added. The process of senescence was stopped by the binding of 1-methylcyclopropene on the ethylene receptor and giving a molecular response.

carnations [3] = assay: Ethylene production of carnation flowers; format: in vivo, carnation (Dianthus caryophyllus); conditions: compound applied at the ethylene climacteric; thereafter ethylene production measured
Method: Ethylene production was followed from the beginning of the ethylene climacteric production. […] 1- Methylcyclopropene was applied. Thereafter ethylene production was measured.

ethylene receptor [4] = assay: 14C-ethylene binding to carnation petals; design: species or system carnation (Dianthus caryophyllus); conditions: flowers treated with 5 nl/l, stored 4 days at room temperature at 4° C. before binding experiment (FIG. 4)
Method: Triplicate samples of 3 g cut carnations' petals were placed in a 2.51 desiccator containing ^14 C-ethylene-mercuric perchlorate complex (110 mCi/mM) in a 25 ml Erlenmeyer flask. Then, an excess of […] lithium chloride was added to the ethylene-mercuric perchlorate complex to release the gaseous ethylene. The mixture was stirred for 6 minutes. To determine the amount of binding, 3 ml of unlabelled ethylene was added in one desiccator. After 2 hours of ethylene exposure, the desiccators were opened and the samples were aerated for 4 minutes. Each sample was then placed in a 250 ml jar. 0.2 Ml of mercuric perchlorate on a 0.5 cm^2 piece of fiber-glass filter in a scintillation vial was then added. After 18 hours, the scintillation vials were removed, scintillation fluid added and the radioactivity counted for each sample.
To determine if the 1-methylcyclopropene acted on the ethylene receptor, flowers were treated with 5 nl/l of 1-methylcyclopropene and stored for 4 days at room temperature at 4° C. before the ethylene binding experiment. Carnation petals preincubated with 1-methylcyclopropene and control petals which had not been incubated with 1-methylcyclopropene were then incubated in the presence of ^14 C-ethylene. One sample representing the control was incubated with a saturating concentration of unlabelled ethylene in the presence of ^14 C-ethylene. […]

Bananas = assay: Banana ripening (chlorophyll disappearance); format: in vivo, bananas (Musa sapientum)
Method: Bananas were individually placed in a 3 l jar. 1-Methylcyclopropene was injected into the jar at a determined concentration. The plant material was then aerated and 1 ml/l of ethylene was added for 12 hours. Controls were held in jars without chemical treatment. Chlorophyll measurement was made as previously described in Sisler and Wood, 1988). The experiment was done 7 days after 1-methylcyclopropene treatment.

tomatoes = assay: Tomato ripening after ethylene treatment; format: in vivo, tomatoes (Lycopersicon esculentum); conditions: applied for 12 hours before the ethylene treatment
Method: Tomato seeds were washed with NaOCl (10%) and rinsed with water. The seeds were placed on wetted filter paper with 10 mM sodium phosphate buffer at pH 5.8. The germination was done in the dark. When the seedlings were about 1 mm height, 30 seeds by sample were placed on wet filter paper in a 0.5 l jar. 1-Methylcyclopropene was added over 24 hours before adding 10 μl/l ethylene for 5 days.
When 1-methylcyclopropene was applied for 12 hours before the ethylene treatment, only 10 nl/l of compound was enough to preserve tomatoes.

ethylene receptor [5] = assay: Diffusion of 3H 1-methylcyclopropene from carnation petals; format: binding, carnation (Dianthus caryophyllus)
Method: In order to label the ethylene receptor, 1-methylcyclopropene was labelled with tritium and the specific activity obtained was 60 mCi/mM. An eventual diffusion of the compound was studied on carnations. The flowers were treated with 1-methylcyclopropene, and with large amounts of ethylene. Control flowers were treated with 1-methylcyclopropene alone. The diffusion was followed for 7 days. […] When the experiment was made at 4° C., the diffusion was nonexistent.

Structure (SMILES)	effect of ethylene on treated carnations 10 days after treatment (carnations [1]; 5 nl/l for 6 hours, stored 10 days at room temperature, then 1 ml/l ethylene over 18 hours)	minimal concentration preventing the ethylene process, compared with that at the other ethylene levels (carnations [1]; flowers treated with 1 ml/l of ethylene)	concentration to protect the flower against ethylene action, compared with STS, DACP or NBD (carnations [1]; in vivo carnations)	concentration achieving total protection (carnations [1]; old cut carnations (stage III)) [nl/l]	minimal concentration preventing the ethylene process (flowers looked like control without ethylene) (carnations [1]; stage II carnations, 6 hours treatment before 10 or 1000 ml/l ethylene for 1 hour, after 4 days) [nl/l]	concentration needed to protect the flowers against exogenous ethylene (carnations [1]; treated for 24 hours, against 1 ml/l of ethylene) [nl/l]	extent of protection against ethylene (carnations [1]; young cut carnations (stage I), about 1.25 and 2.5 nl/l)	senescent process of flowers treated in a pre-senescent stage (carnations [2]; 5 nl/l, observed 15 days later, untreated control in-rolled one day later)	concentration enough to stop the senescence process due to exogenous ethylene exposure (carnations [2]; after exogenous ethylene exposure of at least 6 hours) [nl/l]	process of senescence after in-rolling had begun (carnations [2]; ethylene over 6 hours, in-rolling begun, thereafter compound added)	petal in-rolling of carnations treated with ethylene and then compound (carnations [2]; ethylene, then 1-methylcyclopropene)	ethylene production, control versus treated flowers (FIG. 3) (carnations [3])	specific 14C-ethylene binding (ethylene receptor [4])	Ki (chlorophyll measurement) (Bananas; 1 ml/l ethylene for 12 hours, measured 7 days after treatment) [nl/l]	Ki for chlorophyll disappearance (Bananas; experiments done in the dark) [ul/l]	Ki for chlorophyll disappearance (Bananas; experiments done in the light) [ul/l]	time for which ripening was prevented (Bananas; treated bananas, fruits turned brown after this period)	concentration enough to preserve tomatoes (tomatoes) [nl/l]	diffusion of the labelled compound from carnations (ethylene receptor [5]; experiment made at 4° C.)	diffusion of the labelled compound from carnations (ethylene receptor [5]; followed for 7 days, flowers without ethylene treatment)
CC1=CC1 [1-methylcyclopropene]	no effect	the same	much lower	10	2.5	0.5	total	did not show a senescent process	3	stopped	no visible sign of the phenomenon	considerably lower	totally inhibited	0.4	40	1.2	about 15 days	10		
CC1=CC1 [^3 H 1-methylcyclopropene]																			nonexistent	a little diffusion
